US7034056B2, “Aryl and biaryl compounds having MCH modulatory activity” (Pharmacopeia Drug Discovery, inc., priority 2001, dated 2006)

What follows are compounds tested against T1, hMCHR (MCH receptor) (Homo sapiens, UniProt Q99705) (assay: MCH Assay PCOP Protocol ([125I]-MCH SPA binding to hMCHR-CHO membranes)). Conditions: [125I]-MCH 0.5 nM, hMCHR-CHO membranes; read-out: Activity (ranges of Ki values).
T1 construct: (or internally produced); host or cells: CHO (Chinese hamster ovary) cells, membrane preparation
T1 sequence (Q99705 whole entry): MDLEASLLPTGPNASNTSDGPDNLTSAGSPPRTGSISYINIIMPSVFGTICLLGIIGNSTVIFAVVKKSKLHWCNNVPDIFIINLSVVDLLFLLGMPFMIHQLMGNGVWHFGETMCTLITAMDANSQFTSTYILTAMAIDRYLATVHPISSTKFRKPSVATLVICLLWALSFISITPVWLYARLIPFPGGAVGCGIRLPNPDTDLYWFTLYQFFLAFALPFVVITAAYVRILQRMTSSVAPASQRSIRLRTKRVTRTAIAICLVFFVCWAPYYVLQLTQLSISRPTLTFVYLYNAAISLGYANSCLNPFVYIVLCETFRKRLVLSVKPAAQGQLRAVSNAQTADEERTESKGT
Experimental: A reaction mixture of 10 μg hMCHR-CHO overexpressing membranes (from Receptor Biology, Inc., Beltsville, Md., or internally produced) and 100 μg/well WGA-SPA beads (from Amersham Pharmacia Biotech, Inc., Piscataway, N.J.)/100 μl was prepared in MCHR assay buffer (25 mM HEPES, pH 7.4, 10 mM NaCl, 10 mM MgCl2, 5 mM MnCl2, 0.1% BSA). […] The assay plates were shaken for 5 minutes on a plate shaker, then incubated for 2 hours before cpm/well were determined in a Microbeta Trilux counter (from PerkinElmer Wallac, Inc., Gaithersburg, Md.).

Row | Ki | Compound
1 | 0.4 to 50 nM | COCCNCCC(CNC(=O)Nc1cc(Cl)cc(Cl)c1)c1ccc(-c2cccc(C#N)c2)cc1 (stereo not drawn) [Example 72]
2 | 0.4 to 50 nM | N#Cc1cccc(-c2ccc(C(CCNC3CCCC3)CNC(=O)Nc3ccc(F)c(F)c3)cc2)c1 (stereo not drawn) [Example 74]
3 | 0.4 to 50 nM | N#Cc1cccc(-c2ccc(C(CCNC3CCCC3)CNC(=O)Nc3ccc(F)c(Cl)c3)cc2)c1 (stereo not drawn) [Example 75]
4 | 0.4 to 50 nM | N#Cc1cccc(-c2ccc(C(CCNC3CC3)CNC(=O)Nc3cc(Cl)cc(Cl)c3)cc2)c1 (stereo not drawn) [Example 76]
5 | 0.4 to 50 nM | N#Cc1cccc(-c2ccc(C(CCN3CCOCC3)CNC(=O)Nc3cc(Cl)cc(Cl)c3)cc2)c1 (stereo not drawn) [Example 81]
6 | 51 to 500 nM | N#Cc1cccc(-c2ccc(C(CCNC3CCCC3)CNC(=O)c3cc(Cl)cc(Cl)c3)cc2)c1 (stereo not drawn) [Example 82]
7 | 51 to 500 nM | N#Cc1cccc(-c2ccc(C(CCNC3CCCC3)CNC(=O)c3ccc(F)c(F)c3)cc2)c1 (stereo not drawn) [Example 83]
8 | 51 to 500 nM | N#Cc1cccc(-c2ccc(C(CCNC3CCCC3)CNC(=O)c3cccc(F)c3)cc2)c1 (stereo not drawn) [Example 84]
9 | 51 to 500 nM | N#Cc1cccc(-c2ccc(C(CCNC3CCCC3)CNC(=O)c3cccc(Cl)c3)cc2)c1 (stereo not drawn) [Example 85]
10 | 501 to 2500 nM | CS(=O)(=O)N(CCC(CNC(=O)Nc1cc(Cl)cc(Cl)c1)c1ccc(-c2cccc(C#N)c2)cc1)C1CCCC1 (stereo not drawn) [Example 87]
11 | 0.4 to 50 nM | CN(C)CCCNCCC(CNC(=O)Nc1cc(Cl)cc(Cl)c1)c1ccc(-c2cccc(OC(F)(F)F)c2)cc1 (stereo not drawn) [Example 88]
12 | 0.4 to 50 nM | O=C(NCC(CCNC1CCCC1)c1ccc(-c2ccc(F)c(F)c2)cc1)Nc1cc(Cl)cc(Cl)c1 (stereo not drawn) [Example 90]
13 | 0.4 to 50 nM | CN(C)CCCNCCC(CNC(=O)Nc1cc(Cl)cc(Cl)c1)c1ccc(-c2ccc(F)c(F)c2)cc1 (stereo not drawn) [Example 92]
14 | 0.4 to 50 nM | O=C(NCC(CCNC1CCCC1)c1ccc(-c2ccc[n+]([O-])c2)cc1)Nc1cc(Cl)cc(Cl)c1 (stereo not drawn) [Example 94]
15 | 0.4 to 50 nM | O=C(NCC(CCNC1CCCC1)c1ccc(-c2cc(F)cc(F)c2)cc1)Nc1cc(Cl)cc(Cl)c1 (stereo not drawn) [Example 95]
16 | 51 to 500 nM | Cc1noc(C)c1-c1ccc(C(CCNC2CCCC2)CNC(=O)Nc2cc(Cl)cc(Cl)c2)cc1 (stereo not drawn) [Example 97]
17 | 51 to 500 nM | CN(C)CCCNCCC(CNC(=O)Nc1cc(Cl)cc(Cl)c1)c1ccc(-c2ccc(C#N)cc2)cc1 (stereo not drawn) [Example 98]
18 | 51 to 500 nM | CN(C)CCCNCCC(CNC(=O)Nc1cc(Cl)cc(Cl)c1)c1ccc(-c2cc(F)cc(F)c2)cc1 (stereo not drawn) [Example 99]
19 | 51 to 500 nM | O=C(NCC(CCNC1CCCC1)c1ccc(-c2c(F)cccc2F)cc1)Nc1cc(Cl)cc(Cl)c1 (stereo not drawn) [Example 100]
20 | 51 to 500 nM | CN(C)CCCNCCC(CNC(=O)Nc1cc(Cl)cc(Cl)c1)c1ccc(-c2ccc(OC(F)(F)F)cc2)cc1 (stereo not drawn) [Example 101]
21 | 501 to 2500 nM | CN(C)CCCNCCC(CNC(=O)Nc1cc(Cl)cc(Cl)c1)c1ccc(-c2c(F)cccc2F)cc1 (stereo not drawn) [Example 102]
22 | 51 to 500 nM | Cc1ccc(C(CCNC2CCCC2)CNC(=O)Nc2cc(Cl)cc(Cl)c2)cc1C (stereo not drawn) [Example 103]
23 | 51 to 500 nM | O=C(NCC(CCNC1CCCC1)c1ccc2c(c1)OCO2)Nc1ccc(Cl)c([N+](=O)[O-])c1 (stereo not drawn) [Example 104]
24 | 51 to 500 nM | CC(CCNC1CCCC1)(CNC(=O)Nc1ccc(Cl)c([N+](=O)[O-])c1)c1ccc(Cl)c(Cl)c1 (stereo not drawn) [Example 105]

Row | Ki | Compound
25 | 51 to 500 nM | O=C(NCC(CCNC1CCCC1)c1ccc2c(c1)OCO2)Nc1cc(Cl)cc(Cl)c1 (stereo not drawn) [Example 106]
26 | 51 to 500 nM | CC(CCNC1CCCC1)(CNC(=O)Nc1cc(Cl)cc(Cl)c1)c1ccc(Cl)c(Cl)c1 (stereo not drawn) [Example 107]
27 | 51 to 500 nM | O=C(NCC(CCNC1CCCC1)c1ccc(Cl)cc1)Nc1cc(C(F)(F)F)cc(C(F)(F)F)c1 (stereo not drawn) [Example 108]
28 | 51 to 500 nM | Cc1ccc(C(CCNC2CCCC2)CNC(=O)Nc2cc(C(F)(F)F)cc(C(F)(F)F)c2)cc1C (stereo not drawn) [Example 109]
29 | 51 to 500 nM | O=C(NCC(CCNC1CCCC1)c1cccs1)Nc1ccc(Cl)c([N+](=O)[O-])c1 (stereo not drawn) [Example 110]
30 | 51 to 500 nM | CN(C)CCCNCCC(C)(CNC(=O)Nc1cc(Cl)cc(Cl)c1)c1ccc(Cl)c(Cl)c1 (stereo not drawn) [Example 111]
31 | 501 to 2500 nM | CN(C)CCCNCCC(CNC(=O)Nc1cc(Cl)cc(Cl)c1)c1ccc(Cl)cc1 (stereo not drawn) [Example 112]
32 | 501 to 2500 nM | CC(CCNC1CCCC1)(CNC(=O)Nc1ccc(F)c([N+](=O)[O-])c1)c1ccc(Cl)c(Cl)c1 (stereo not drawn) [Example 113]
33 | 501 to 2500 nM | CC(CCNC1CCCC1)(CNC(=O)Nc1ccc(F)c(F)c1)c1ccc(Cl)c(Cl)c1 (stereo not drawn) [Example 114]
34 | 501 to 2500 nM | CN(C)CCCNCCC(C)(CNC(=O)Nc1ccc(Cl)c([N+](=O)[O-])c1)c1ccc(Cl)c(Cl)c1 (stereo not drawn) [Example 115]
35 | 501 to 2500 nM | CN(C)CCCNCCC(CNC(=O)Nc1cc(Cl)cc(Cl)c1)c1ccc2c(c1)OCO2 (stereo not drawn) [Example 116]
36 | 501 to 2500 nM | CN(C)CCCNCCC(C)(CNC(=O)Nc1ccc(F)c([N+](=O)[O-])c1)c1ccc(Cl)c(Cl)c1 (stereo not drawn) [Example 117]
37 | 501 to 2500 nM | Cc1ccc(C(CCNCCCN(C)C)CNC(=O)Nc2cc(Cl)cc(Cl)c2)cc1C (stereo not drawn) [Example 118]
38 | 501 to 2500 nM | CN(C)CCCNCCC(C)(CNC(=O)Nc1ccc(F)c(F)c1)c1ccc(Cl)c(Cl)c1 (stereo not drawn) [Example 119]
39 | 501 to 2500 nM | CN(C)CCCNCCC(CNC(=O)Nc1ccc(Cl)c([N+](=O)[O-])c1)c1ccc2c(c1)OCO2 (stereo not drawn) [Example 120]
40 | 501 to 2500 nM | O=C(NCC(CCNC1CCCC1)c1ccc2c(c1)OCO2)Nc1ccc(F)c([N+](=O)[O-])c1 (stereo not drawn) [Example 121]
41 | 51 to 500 nM | CCOC(=O)N1CCC(NCCC(CNC(=O)Nc2cc(Cl)cc(Cl)c2)c2ccc(Cl)cc2)CC1 (stereo not drawn) [Example 122]
42 | 51 to 500 nM | CCOC(=O)N1CCC(NCCC(CNC(=O)Nc2cc(Cl)cc(Cl)c2)c2ccc(C)cc2)CC1 (stereo not drawn) [Example 123]
43 | 51 to 500 nM | O=C(NCC(CCNC1CCCC1)c1ccc(Cl)cc1)Nc1ccc(Cl)c(Cl)c1 (stereo not drawn) [Example 124]
44 | 51 to 500 nM | COc1cc(CNCCC(CNC(=O)Nc2ccc(F)c([N+](=O)[O-])c2)c2ccc(Cl)c(Cl)c2)cc(OC)c1OC (stereo not drawn) [Example 125]
45 | 51 to 500 nM | COc1cc(CNCCC(CNC(=O)Nc2ccc(F)c(Cl)c2)c2ccc(Cl)c(Cl)c2)cc(OC)c1OC (stereo not drawn) [Example 126]
46 | 51 to 500 nM | Cc1ccc(C(CCNC2CCCC2)CNC(=O)Nc2ccc(Cl)c(Cl)c2)cc1 (stereo not drawn) [Example 127]
47 | 51 to 500 nM | CCOC(=O)N1CCC(NCCC(CNC(=O)Nc2cccc(C(F)(F)F)c2)c2ccc(Cl)cc2)CC1 (stereo not drawn) [Example 128]
48 | 51 to 500 nM | COc1cc(CNCCC(CNC(=O)Nc2cc(Cl)cc(Cl)c2)c2ccc(Cl)c(Cl)c2)cc(OC)c1OC (stereo not drawn) [Example 129]

Row | Ki | Compound
49 | 51 to 500 nM | O=C(NCC(CCNC1CCCC1)c1ccc(Cl)c(Cl)c1)Nc1cccc(Cl)c1 (stereo not drawn) [Example 130]
50 | 51 to 500 nM | COc1cc(CNCCC(CNC(=O)Nc2ccc(F)c(F)c2)c2ccc(Cl)c(Cl)c2)cc(OC)c1OC (stereo not drawn) [Example 131]
51 | 51 to 500 nM | COc1cc(CNCCC(CNC(=O)Nc2cccc(C(F)(F)F)c2)c2ccc(Cl)c(Cl)c2)cc(OC)c1OC (stereo not drawn) [Example 132]
52 | 51 to 500 nM | O=C(NCC(CCNC1CCCC1)c1ccc(Cl)c(Cl)c1)Nc1cccc(Br)c1 (stereo not drawn) [Example 133]
53 | 51 to 500 nM | O=C(NCC(CCNC1CCCC1)c1ccc(Cl)c(Cl)c1)Nc1ccc(F)c(Cl)c1 (stereo not drawn) [Example 134]
54 | 51 to 500 nM | O=C(NCC(CCNC1CCNC1)c1ccc(Cl)c(Cl)c1)Nc1ccc(Cl)c(Cl)c1 (stereo not drawn) [Example 135]
55 | 51 to 500 nM | O=C(NCC(CCNC1CCCC1)c1ccc(Cl)cc1)Nc1cccc(Br)c1 (stereo not drawn) [Example 136]
56 | 51 to 500 nM | CCOC(=O)N1CCC(NCCC(CNC(=O)Nc2cccc(C(F)(F)F)c2)c2ccc(C)cc2)CC1 (stereo not drawn) [Example 137]
57 | 51 to 500 nM | O=C(NCC(CCNCCc1ccc(O)cc1)c1ccc(Cl)c(Cl)c1)Nc1ccc(F)c([N+](=O)[O-])c1 (stereo not drawn) [Example 138]
58 | 501 to 2500 nM | O=C(NCC(CCNC1CCCC1)c1ccc(Cl)cc1)Nc1cccc(Cl)c1 (stereo not drawn) [Example 139]
59 | 501 to 2500 nM | O=C(NCC(CCNCCc1ccc(O)cc1)c1ccc(Cl)c(Cl)c1)Nc1ccc(F)c(F)c1 (stereo not drawn) [Example 140]
60 | 501 to 2500 nM | O=C(NCC(CCNC1CCCC1)c1ccc(Cl)c(Cl)c1)Nc1ccc(F)c([N+](=O)[O-])c1 (stereo not drawn) [Example 141]
61 | 501 to 2500 nM | Cc1ccc(C(CCNC2CCCC2)CNC(=O)Nc2cccc(Cl)c2)cc1 (stereo not drawn) [Example 142]
62 | 501 to 2500 nM | Cc1ccc(C(CCNC2CCCC2)CNC(=O)Nc2cccc(Br)c2)cc1 (stereo not drawn) [Example 143]
63 | 501 to 2500 nM | O=C(NCC(CCNC1CCCC1)c1ccc(Cl)c(Cl)c1)Nc1ccc(F)c(F)c1 (stereo not drawn) [Example 144]
64 | 501 to 2500 nM | Cc1ccc(C(CCNC2CCNC2)CNC(=O)Nc2ccc(Cl)c(Cl)c2)cc1 (stereo not drawn) [Example 145]
65 | 51 to 500 nM | CCCOC(=O)N1CCN(CCC(CNC(=O)Nc2cc(C(F)(F)F)cc(C(F)(F)F)c2)c2ccc(Cl)c(Cl)c2)CC1 (stereo not drawn) [Example 146]
66 | 51 to 500 nM | O=C(NCC(CCNC1CCCC1)c1cccc(-c2ccc3c(c2)OCO3)c1)Nc1cc(Cl)cc(Cl)c1 (stereo not drawn) [Example 147]
67 | 51 to 500 nM | O=C(NCC(CCNC1CCCC1)c1cccc(-c2cccc([N+](=O)[O-])c2)c1)Nc1cc(Cl)cc(Cl)c1 (stereo not drawn) [Example 148]
68 | 51 to 500 nM | N#Cc1cccc(-c2cccc(C(CCNC3CCCC3)CNC(=O)Nc3cc(Cl)cc(Cl)c3)c2)c1 (stereo not drawn) [Example 149]
69 | 51 to 500 nM | CN(C)CCCNCCC(CNC(=O)Nc1cc(Cl)cc(Cl)c1)c1cccc(-c2ccc(C(F)(F)F)cc2)c1 (stereo not drawn) [Example 150]
70 | 51 to 500 nM | CN(C)CCCNCCC(CNC(=O)Nc1cc(Cl)cc(Cl)c1)c1cccc(-c2ccc(Cl)cc2)c1 (stereo not drawn) [Example 151]
71 | 51 to 500 nM | O=C(NCC(CCNC1CCCC1)c1cccc(-c2ccc(Cl)cc2)c1)Nc1cc(Cl)cc(Cl)c1 (stereo not drawn) [Example 152]
72 | 51 to 500 nM | COc1cc(-c2cccc(C(CCNC3CCCC3)CNC(=O)Nc3cc(Cl)cc(Cl)c3)c2)cc(OC)c1OC (stereo not drawn) [Example 153]
